From patent EP4617273A1, “FUSED TRICYCLIC PARP1 INHIBITOR, PREPARATION METHOD THEREFOR, AND USE THEREOF” (Haihe Biopharma Co., Ltd., priority 2022, dated 2024)
Like-named read-outs stand apart in the source and are kept apart here.

Legend:
MDA-MB-436 cells = experiment: MDA-MB-436 cell proliferation inhibition test (CellTiter-Glo, 7 days); type: cell-based; details: Homo sapiens, MDA-MB-436, 168 h, 7 days incubation
Protocol: Human breast cancer MDA-MB-436 (purchased from ATCC) cells were cultured in DMEM medium (supplemented with 10% fetal bovine serum with 1% dual antibody) at 37 °C, 5% CO2. The cells were taken from the logarithmic growth phase, digested and prepare cell suspension witha certain concentration, which was inoculated into 96-well plates. 100 µL of cell suspension was added to each well of the 96-well plates, incubated overnight, then different concentrations of compounds were added, and the cells were incubated in the cell culture incubator for 7 days. At the end of incubation, 50 µL of CellTiter-Glo reagent was added to each well, mixed with a microplate and shaked for 2 min, and left at rt for 60 min, then the fluorescence value was read with a Spark® multimode microplate reader. […] Table 2. proliferation inhibitory activity of compounds of the present invention on MDA-MB-436 cells

MDR1 (P-gp) = experiment: MDR1-MDCK II cell model of bidirectional permeability; type: in vitro ADME; details: dog, Efflux Ratio = Papp (B-A) / Papp (A-B), read-out: ER ratio
Protocol: (§1) 2 µM of the test compound was added to the wells at the apical side or the basolateral side of the monolayer of cells and incubated for 2.5 h at 37.0°C in a 5.0% CO2 incubator. Cell monolayer integrity was determined by Lucifer yellowrejection assay. The buffer was removed from the apical side and basolateral side, and the concentration of the subject compounds was determined using LC-MS/MS. The concentration data were used to calculate the apparent permeabilitycoefficients of apical-to-basolateral (A-B) and basolateral-to-apical (B-A)side, and to calculate efflux ratio with the formula: Efflux Ratio = Papp (B-A) / Papp (A-B) Table 3. bidirectional permeability of MDR1-MDCK II cells for compounds of the present invention

MDR1 = experiment: as above; type: in vitro ADME; details: dog, 2 µM, 2.5 h; for Papp A→B at 2.5 h, 2 µM: apical-to-basolateral; for Papp B→A at 2.5 h, 2 µM: basolateral-to-apical
Protocol: as §1

[1] = molecular target: T1, Recombinant human PARP1 protein (Homo sapiens, UniProt P09874); experiment: PARP1 enzymatic inhibitory activity, histone substrate, chemiluminescent ELISA; details: PARP2 IC50 over PARP1 IC50
Protocol: (§2) The PARP1/2 inhibitory activity of the compounds of the present invention was tested in an assay using Histone as a substrate.
(§3) Aim of the assay: to test the PARP1/2 enzymatic activity inhibition IC50 values of the compounds of the present application according to established experimental methods.
(§4) 1. Compound Configuration: Dilute the compounds with DMSO in 384-well plates to a 1000-fold final concentration and set aside.
(§5) 1) Dilute Histone with PBS, add 25uL of Histone mixture to each well and incubate for 2 h. 2) Wash each well 5 times using PBST solution. Remove the solution with a clean paper towel.3) Add 75 uL of Blocking buffer to each well and incubate for 1 h at rt. 4) Wash each well 5 times using PBST solution. Remove the solution with a clean paper towel.
(§6) 2) Use 1× Assay buffer to prepare 2.5× final concentration of PARP1 solution. 3) Add 10 uL of enzyme solution to the compound wells and Max control wells; add 10 uL of 1× Assay buffer. […] 6) Centrifuge at 1000 rpm for 60 seconds and incubate at rt for 2 h. 7) Each well was washed 5 times with PBST solution. Remove the solution with a clean paper towel.
(§7) 1) Prepare Streptavidin-HRP solution, add 25 µL to each well, centrifuge at 1000 rpm for 60 sec, and incubate at rt for 30 min. 2) Wash each well 5 times using PBST solution. Remove the solution with a clean paper towel. 3) Add 50 µL of ELISA Chemiluminescent Substrate per well. 4) Centrifuge at 1000 rpm for 60 seconds and read with EnSight after 5 min.
(§8) The inhibition rate was calculated using the following formula: % inhibition = (max signal - compound signal) / (max signal - min signal) × 100, where 'min signal' is the mean value of negative control wells and 'max signal' is the mean value of positive control wells.
(§9) Fitting the quantitative effect curve: using the log value of the concentration as the X-axis and the percentage inhibition as the Y-axis; using the log(inhibitor) vs. response-variable slope method in software GraphPadPrism5 to fit the quantitative effect curve to calculate the IC50 value for the inhibition of the enzyme activity by the compounds of the present invention. The fitting formula is: Y=Bottom+ (Top-Bottom)/(1+10^((logIC50-X)*HillSlope)).

[2] = molecular target: T2, recombinant human PARP2 protein (Homo sapiens, UniProt Q9UGN5); experiment: PARP2 enzymatic inhibitory activity, histone substrate, chemiluminescent ELISA; type: biochemical
T2 construct: purchased BPS 80502
Protocol: The PARP2 inhibitory activity assay was performed as in Experimental Method 1, except that PARP1 solution in step 2 of "3. Ribosylation reaction" was replaced with recombinant human PARP2 solution, and 500 µM NAD+ was not added in step 5 of the ribosylation reaction. Table 1. IC50 for inhibition of PARP1/2 enzymes by compounds of the present invention

[3] = molecular target: T1, Recombinant human PARP1 protein; experiment: biochemical
Protocol: as §2, §3, §4, §5, §6, §7, §8, §9

[4] = Preliminary pharmacokinetic test in mice; type: in vivo; details: male, ICR; for AUC(0-t) / clearance / half-life: mouse plasma; for bioavailability: plasma, oral, mouse, p.o. 5 mg/kg versus i.v. 1 mg/kg
Protocol: 1. Healthy ICR mice were administered the tested compounds intravenously (1 mg/kg) or by gavage (5 mg/kg). Nine male mice weighing 30-35 g for each route of administration were randomly divided into three groups of three mice each.
The mice were fasted for 12h before the test and allowed to drink water freely. The mice were fed 4h after the administration.
Intravenous and gavage administration: 0.25h, 0.5h, 1.0h, 2.0h, 3.0h, 4.0h, 6.0h, 8.0h and 24h after administration.
Blood was collected continuously, and 3 animals were collected at each time point. Plasma collection and processing: 30-40 µL of venous blood was collected from the mouse retroorbital venous plexus at the above set time points, placed in an EDTA-K2 test tube, centrifuged at 3500 rpm for 10 min, and plasma was separated and frozen in a -20 °C refrigerator.
The concentration of the compounds in mouse plasma was determined by LC/MS/MS. Pharmacokinetic parameters after administration were calculated using the […] of Phoenix 8.3 software (Pharsight, USA).

[5] = histone substrate, 500 µM NAD+ not added, read-out: PARP2 IC50

T1 sequence (P09874 whole entry): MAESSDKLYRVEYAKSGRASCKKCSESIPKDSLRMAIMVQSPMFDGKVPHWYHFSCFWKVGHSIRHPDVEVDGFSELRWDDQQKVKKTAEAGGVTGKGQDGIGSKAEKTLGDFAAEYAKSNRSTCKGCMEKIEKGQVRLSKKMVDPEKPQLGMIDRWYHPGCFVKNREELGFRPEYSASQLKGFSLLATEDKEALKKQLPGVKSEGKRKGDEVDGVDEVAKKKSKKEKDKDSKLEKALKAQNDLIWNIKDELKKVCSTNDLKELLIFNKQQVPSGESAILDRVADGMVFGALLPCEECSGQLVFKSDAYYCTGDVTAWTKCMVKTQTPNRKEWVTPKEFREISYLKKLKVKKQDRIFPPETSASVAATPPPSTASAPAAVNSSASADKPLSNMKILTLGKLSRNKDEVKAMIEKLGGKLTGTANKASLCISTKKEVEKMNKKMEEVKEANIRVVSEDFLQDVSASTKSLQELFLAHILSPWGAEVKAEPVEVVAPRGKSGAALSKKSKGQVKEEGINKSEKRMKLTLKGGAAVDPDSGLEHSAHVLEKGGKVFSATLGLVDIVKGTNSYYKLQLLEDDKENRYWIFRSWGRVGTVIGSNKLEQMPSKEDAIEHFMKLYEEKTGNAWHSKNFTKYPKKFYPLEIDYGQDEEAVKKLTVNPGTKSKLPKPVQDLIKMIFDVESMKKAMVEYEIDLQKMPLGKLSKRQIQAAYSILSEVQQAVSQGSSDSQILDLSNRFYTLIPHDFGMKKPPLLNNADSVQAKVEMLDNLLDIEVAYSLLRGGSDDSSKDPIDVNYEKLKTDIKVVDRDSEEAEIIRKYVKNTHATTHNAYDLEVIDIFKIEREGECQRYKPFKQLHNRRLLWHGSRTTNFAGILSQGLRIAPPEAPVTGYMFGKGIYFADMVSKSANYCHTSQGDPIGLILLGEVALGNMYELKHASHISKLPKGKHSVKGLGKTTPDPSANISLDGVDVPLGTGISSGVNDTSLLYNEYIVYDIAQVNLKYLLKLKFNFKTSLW
T2 sequence (Q9UGN5 whole entry): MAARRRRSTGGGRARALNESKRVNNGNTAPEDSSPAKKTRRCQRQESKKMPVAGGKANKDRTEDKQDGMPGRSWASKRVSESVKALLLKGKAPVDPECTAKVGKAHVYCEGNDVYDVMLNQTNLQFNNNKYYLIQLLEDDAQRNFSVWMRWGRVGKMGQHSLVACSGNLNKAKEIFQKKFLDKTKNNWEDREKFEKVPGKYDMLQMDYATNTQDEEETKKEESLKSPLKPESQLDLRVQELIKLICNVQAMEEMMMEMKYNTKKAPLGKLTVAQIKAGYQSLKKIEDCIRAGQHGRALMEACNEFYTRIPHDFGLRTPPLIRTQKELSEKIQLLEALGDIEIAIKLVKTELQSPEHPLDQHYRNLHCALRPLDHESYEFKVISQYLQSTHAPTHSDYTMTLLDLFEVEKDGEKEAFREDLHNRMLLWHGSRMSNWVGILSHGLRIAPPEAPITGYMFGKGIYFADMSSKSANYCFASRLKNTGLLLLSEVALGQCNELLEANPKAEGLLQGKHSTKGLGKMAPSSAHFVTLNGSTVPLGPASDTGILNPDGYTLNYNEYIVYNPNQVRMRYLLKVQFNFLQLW

PARP1/2 Fold selectivity [1] | IC50 [2, 5] | IC50 [3] | Structure (SMILES) | IC50 (MDA-MB-436 cells) | Papp A→B at 2.5 h, 2 µM (MDR1) | Papp B→A at 2.5 h, 2 µM (MDR1) | other results
– | – | – | CNC(=O)c1ccc(N2CCN(Cc3ccc4nc(C)c(=O)[nH]c4c3F)CC2)c(F)n1 [AZD-9574] | 15.7 nM | 19.4 ×10⁻⁶ cm/s | 19.4 ×10⁻⁶ cm/s | efflux ratio at 2.5 h, 2 µM (MDR1 (P-gp)): 1
374.9 | 214 nM | 0.57 nM | CNC(=O)c1ccc(N2CCN(C(C)c3ccc4c(c3)[nH]c(=O)c3ccnn34)CC2)c(F)n1 (centres unmarked) [Compound 12] | < 1.52 nM | – | – | –
447.6 | 358 nM | 0.8 nM | CNC(=O)c1ccc(N2CCN(Cc3ccc4c(c3)[nH]c(=O)c3nn(C)cc34)CC2)c(F)n1 [Compound 22] | 4.6 nM | – | – | –
521.6 | 522 nM | 1 nM | CNC(=O)c1ccc(N2CCN(Cc3ccc4c(c3)[nH]c(=O)c3nc(C)oc34)CC2)c(F)n1 [Compound 102] | 3.7 nM | – | – | –
922.1 | 829 nM | 0.9 nM | CNC(=O)c1ccc(N2CCN(Cc3ccc4c(c3)[nH]c(=O)c3nc(C)sc34)CC2)c(F)n1 [Compound 103] | 1.4 nM | – | – | –
1626.3 | 1300 nM | 0.8 nM | CNC(=O)c1ccc(N2CCN(Cc3ccc4c([nH]c(=O)c5ccnn54)c3F)CC2)c(Cl)n1 [Compound 113] | < 1.52 nM | – | – | –
1064 | 1280 nM | 1.2 nM | CNC(=O)c1ccc(N2CCN(Cc3ccc4c(c3F)NC(=O)N3CC(C)N=C43)CC2)c(F)n1 (centres unmarked) [Compound 131] | 15.3 nM | – | – | –
466.3 | 1400 nM | 1.8 nM | CNC(=O)c1ccc(N2CCN(Cc3ccc4c(c3F)NC(=O)N3C4=NC[C@@H]3C)CC2)c(F)n1 [Compound 137] | 22.6 nM | – | – | –
– | – | – | CNC(=O)c1ccc(N2CCN(Cc3ccc4c(c3F)NC(=O)N3CC5(CC5)N=C43)CC2)c(F)n1 [Compound 138] | 3 nM | 14.7 ×10⁻⁶ cm/s | 17 ×10⁻⁶ cm/s | –
>1923 | > 10000 nM | 5.2 nM | CNC(=O)c1ccc(N2CCN(Cc3ccc4c(c3F)NC(=O)N3CC(C)CN=C43)CC2)c(F)n1 (centres unmarked) [Compound 144] | – | – | – | –
277.7 | 278 nM | 1 nM | CNC(=O)c1ccc(N2CCN(Cc3ccc4c(c3F)NC(=O)N3C[C@H](F)CN=C43)CC2)c(F)n1 [Compound 147] | 2.1 nM | – | – | –
>568 | > 10000 nM | 17.6 nM | CNC(=O)c1ccc(N2CCN(Cc3ccc4c(c3F)NC(=O)N3C4=NCCC3C)CC2)c(F)n1 (centres unmarked) [Compound 150] | – | – | – | –
611.4 | 893 nM | 1.46 nM | CNC(=O)c1ccc(N2CCN(Cc3ccc4c(c3F)NC(=O)N3C4=NC[C@@H]3C)CC2)c(C)n1 [Compound 155] | – | – | – | –
207.4 | 97.5 nM | 0.47 nM | CNC(=O)c1ccc(N2CCN(Cc3ccc4c(c3F)NC(=O)N3CC(F)(F)CN=C43)CC2)c(Cl)n1 [Compound 159] | 2.2 nM | – | – | –
541.5 | 514 nM | 0.95 nM | CNC(=O)c1ccc(N2CCN(C(C)c3ccc4c(c3F)NC(=O)N3CC5(CC5)N=C43)CC2)c(F)n1 (centres unmarked) [Compound 173] | – | – | – | –
299 | 547 nM | 1.83 nM | O=C(NC1CC1)c1ccc(N2CCN(Cc3ccc4c(c3F)NC(=O)N3CCCN=C43)CC2)c(F)n1 [Compound 182] | – | – | – | –
820.2 | 894 nM | 1.09 nM | CCNC(=O)c1ccc(N2CCN(Cc3ccc4c(c3F)NC(=O)N3C[C@@H](C)N=C43)CC2)c(Cl)n1 [Compound 185] | – | – | – | –
466.3 | 728 nM | 1.56 nM | N#Cc1ccc(N2CCN(Cc3ccc4c(c3F)NC(=O)N3CCCN=C43)CC2)nc1 [Compound 188] | – | – | – | –
323 | 296 nM | 0.9 nM | CNC(=O)c1ccc(N2CCN(Cc3ccc4c(c3)NC(=O)N3CCCN=C43)CC2)c(Cl)n1 [Compound 191] | – | – | – | –
1324 | 1550 nM | 1.2 nM | C[C@@H]1CN2C(=O)Nc3c(ccc(CN4CCN(c5ccc(C(=O)NC6CC6)nc5Cl)CC4)c3F)C2=N1 [Compound 201] | – | – | – | –

Structure (SMILES) | PARP1/2 Fold selectivity [1] | IC50 [2, 5] | IC50 [3] | IC50 (MDA-MB-436 cells) | Papp A→B at 2.5 h, 2 µM (MDR1) | Papp B→A at 2.5 h, 2 µM (MDR1) | other results
CNC(=O)c1ccc(N2CCN(Cc3ccc4c(c3F)NC(=O)N3C[C@@H](C)N=C43)CC2)c(F)n1 [Compound 132] | 191.8 | 288 nM | 1.5 nM | 12.1 nM | 12.8 ×10⁻⁶ cm/s | 26.8 ×10⁻⁶ cm/s | efflux ratio at 2.5 h, 2 µM (MDR1 (P-gp)): 2.1; AUC(0-t) ([4]; iv, i.v. 1 mg/kg): 6630 ng·h/mL; clearance ([4]; iv, i.v. 1 mg/kg): 2.8 mL/min/kg; half-life ([4]; iv, i.v. 1 mg/kg): 3 h; bioavailability [4]: 98.7%; AUC(0-t) ([4]; po, p.o. 5 mg/kg): 33100 ng·h/mL; half-life ([4]; po, p.o. 5 mg/kg): 4.4 h
CNC(=O)c1ccc(N2CCN(Cc3ccc4c(c3F)NC(=O)N3CCCN=C43)CC2)c(F)n1 [Compound 139] | – | – | 1 nM | 10.4 nM | 16.7 ×10⁻⁶ cm/s | 21.8 ×10⁻⁶ cm/s | AUC(0-t) ([4]; iv, i.v. 1 mg/kg): 2820 ng·h/mL; clearance ([4]; iv, i.v. 1 mg/kg): 5.9 mL/min/kg; half-life ([4]; iv, i.v. 1 mg/kg): 3.1 h; bioavailability [4]: 98%; AUC(0-t) ([4]; po, p.o. 5 mg/kg): 13800 ng·h/mL; half-life ([4]; po, p.o. 5 mg/kg): 3.2 h
CNC(=O)c1ccc(N2CCN(Cc3ccc4c(c3F)NC(=O)N3CCCN=C43)CC2)c(Cl)n1 [Compound 141] | – | – | 1.3 nM | 5.8 nM | 16.2 ×10⁻⁶ cm/s | 23.1 ×10⁻⁶ cm/s | AUC(0-t) ([4]; iv, i.v. 1 mg/kg): 3020 ng·h/mL; clearance ([4]; iv, i.v. 1 mg/kg): 5.5 mL/min/kg; half-life ([4]; iv, i.v. 1 mg/kg): 1.2 h; bioavailability [4]: 92.6%; AUC(0-t) ([4]; po, p.o. 5 mg/kg): 14000 ng·h/mL; half-life ([4]; po, p.o. 5 mg/kg): 2.5 h
CNC(=O)c1ccc(N2CCN(Cc3ccc4c(c3F)NC(=O)N3C[C@@H](F)CN=C43)CC2)c(F)n1 [Compound 149] | 557.9 | – | 1.6 nM | – | – | – | IC50 [2]: 893 nM
CNC(=O)c1ccc(N2CCN(Cc3ccc4c(c3F)NC(=O)N3C4=NC[C@@H]3C)CC2)c(Cl)n1 [Compound 156] | – | – | 1.9 nM | 25 nM | 16.3 ×10⁻⁶ cm/s | 21.1 ×10⁻⁶ cm/s | –
CNC(=O)c1ccc(N2CCN(Cc3ccc4c(c3F)NC(=O)N3CC5(CC5)N=C43)CC2)c(C)n1 [Compound 157] | – | – | 0.5 nM | 3.6 nM | 15.1 ×10⁻⁶ cm/s | 21.6 ×10⁻⁶ cm/s | –
CNC(=O)c1ccc(N2CCN(Cc3ccc4c(c3F)NC(=O)N3CC5(CC5)N=C43)CC2)c(Cl)n1 [Compound 158] | – | – | 0.48 nM | 2.2 nM | 14.7 ×10⁻⁶ cm/s | 14.1 ×10⁻⁶ cm/s | AUC(0-t) ([4]; iv, i.v. 1 mg/kg): 3090 ng·h/mL; clearance ([4]; iv, i.v. 1 mg/kg): 5.5 mL/min/kg; half-life ([4]; iv, i.v. 1 mg/kg): 0.8 h; bioavailability [4]: 108%; AUC(0-t) ([4]; po, p.o. 5 mg/kg): 11000 ng·h/mL; half-life ([4]; po, p.o. 5 mg/kg): 1 h
CNC(=O)c1ccc(N2CCN(Cc3ccc4c(c3F)NC(=O)N3CC(F)(F)CN=C43)CC2)c(C)n1 [Compound 160] | – | – | 0.59 nM | 5.7 nM | 14.3 ×10⁻⁶ cm/s | 8.78 ×10⁻⁶ cm/s | AUC(0-t) ([4]; iv, i.v. 1 mg/kg): 10500 ng·h/mL; clearance ([4]; iv, i.v. 1 mg/kg): 1.6 mL/min/kg; half-life ([4]; iv, i.v. 1 mg/kg): 0.86 h; bioavailability [4]: 70.7%; AUC(0-t) ([4]; po, p.o. 5 mg/kg): 26100 ng·h/mL; half-life ([4]; po, p.o. 5 mg/kg): 0.9 h
